How the values were obtained:
[1] = Formation and stability of other peracids at room temperature (titration); assay type: physicochemical
Protocol: (§1) The concentrations of formed peracids and hydrogen peroxide were monitored by titration on an auto-titrator and by using Chemetrics test kits K7913F and K-5543.
Various other peracids were also prepared using corresponding organic acid precursors and hydrogen peroxide as described in the Example 1. Only the acids with low or no odor were used in the experiment. The solutions were kept at room temperature and periodically tested for the concentration of the components using an auto-titrator and standard titration methods.

[2] = Formation and stability of peroxycitric acid solutions at room temperature (titration); assay type: physicochemical; conditions: H2SO4 catalyst
Protocol: as §1
Two solutions were prepared using solid citric acid (47.9 wt %), 70 wt % hydrogen peroxide (21.8 wt %) and the rest DI water. 0.6 wt % Dequest 2010 stabilizer was added to both solutions. To the first solution (PCA-1), 4.9 wt % concentrated sulfuric acid was added as a catalyst. To the second solution (PCA-2), 0.6 wt % of sulfuric acid was added. Both solutions were kept at room temperature and periodically tested for the concentration of the components using an auto-titrator and standard titration methods.

Compound	Peracid Concentration ([1]; 1 day) [mol/kg]	Peracid Concentration ([1]; 3 days) [mol/kg]	Peracid Concentration ([1]; 7 days) [mol/kg]	Peracid Concentration ([1]; 14 days) [mol/kg]	Peracid Concentration ([1]; 22 days) [mol/kg]	max peracid concentration formed [1] [wt %]	time for which peracid was stable [1]	Peracid Concentration ([1]; 78 days) [mol/kg]	concentration of peracid formed [1] [wt %]	time to reach maximum concentration of PCA [2] [days]
O=C(O)CCCC(=O)OO [Peroxyglutaric, perglutaric acid]	0.993	1.189	1.081	0.986	0.919	–	–	–	–	–
O=C(O)/C=C\C(=O)OO [Peroxymaleic, Permaleic acid]	0.235	–	0.386	0.379	0.348	5.1	at least 78 days	0.318	–	–
O=C(O)CC(=O)OO [Peroxymalonic, permalonic acid]	–	0.442	0.200	0.083	–	–	–	–	–	–
O=C(O)C(=O)OO [Peroxyoxalic, peroxalic acid]	–	0.047	0.066	0.057	–	–	–	–	< 1.0	–
Percitric acid [PCA]	–	–	–	–	–	–	–	–	–	3 to 7

From patent US20240381868A1, “AGED AQUEOUS ANTIMICROBIAL COMPOSITION” (EVONIK CORPORATION, priority 2021, published 2024)
